Data on 8 molecules can be found in ChEMBL document CHEMBL1201862, “PubChem BioAssay data set” (2004).

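A five-concentration, 48-hour dose response in 96-well plates underlies each endpoint, interpolated linearly between surrounding concentrations. GI50 is the concentration that inhibits growth by half.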 The source made the active and inactive calls. Cut-off read from the data, not from the text of the source: active = GI50 up to about 1.1 µM and inactive = higher.

Among the test systems are HCC 2998; A498; IGROV-1; MDA-MB-231; RPMI-8226; HT-29; Hs-578T; OVCAR-5; SK-MEL-2; SNB-19; NCI-H226; NCI/ADR-RES; ACHN; EKVX; HCT-15; MCF7; UACC-257; 786-0; SK-MEL-5.
Assay in all cases: NCI tumour cell line growth inhibition, 48 h

Take `O=C(NNC(=S)Nc1ccccc1)c1ccccc1Nc1ccccc1C(=O)NNC(=S)Nc1ccccc1`: the GI50 was 16.9 µM (inactive) in the experiment with HCC 2998; 42.8 µM (inactive) in the experiment with A498; 8.24 µM (inactive) with IGROV-1; 21.7 µM (inactive) in the experiment on MDA-MB-231; 18.6 µM (inactive) in the experiment on RPMI-8226; 28.5 µM (inactive) with HT-29. In addition, the GI50 is 13.1 µM (inactive) in the experiment on Hs-578T; 16.8 µM (inactive) in the experiment on OVCAR-5; 19.6 µM (inactive) with SK-MEL-2; 17.7 µM (inactive) in the experiment on SNB-19; 24.5 µM (inactive) in the experiment on NCI-H226; 87.3 µM (inactive) in the experiment with NCI/ADR-RES. Besides, the GI50 in the experiment with ACHN was 31.2 µM (inactive); in the experiment with EKVX, 21.1 µM (inactive); with HCT-15, 29.5 µM; in the experiment on MCF7, 23.8 µM (inactive); in the experiment with UACC-257, 19.1 µM (inactive); in the experiment with 786-0 it was 13.8 µM (inactive). The GI50 with SK-MEL-5 was 26.3 µM (inactive).

As to `COc1cc(C2S/C(=C/c3ccccc3)C(=O)N2c2ccc(Cl)c(Cl)c2)cc(OC)c1OC` (configuration not stated), the GI50 in the experiment with HCC 2998 is 58.9 µM (inactive); with A498, > 42.4 µM (inactive); in the experiment on IGROV-1, 22.5 µM (inactive); with MDA-MB-231, > 50.8 µM (inactive); in the experiment with RPMI-8226 it was 46.3 µM (inactive); in the experiment on HT-29, 55.5 µM (inactive). Further, the GI50 is 15 µM (inactive) in the experiment on Hs-578T; 10.1 µM (inactive) in the experiment with OVCAR-5; 12.6 µM (inactive) in the experiment with SK-MEL-2; 59.2 µM (inactive) in the experiment on SNB-19; 29.4 µM (inactive) in the experiment on NCI-H226; 32.6 µM (inactive) with NCI/ADR-RES. Further, the GI50 is 18.7 µM (inactive) with ACHN; 23.1 µM (inactive) with EKVX; 18.7 µM in the experiment on HCT-15; 22.3 µM (inactive) in the experiment on MCF7; > 70.6 µM (inactive) in the experiment with UACC-257; 70.6 µM (inactive) in the experiment on 786-0. In addition, the GI50 in the experiment on SK-MEL-5 was 30.1 µM (inactive).

For the molecule `COc1ccc(C(=O)/C=C/c2cc(O)c(O)c(F)c2F)c(OC)c1`, the GI50 in the experiment on HCC 2998 was 4.75 µM (inactive); in the experiment with A498 it was 20.1 µM (inactive); with IGROV-1, 19.8 µM (inactive); with MDA-MB-231, 18.8 µM (inactive); in the experiment on RPMI-8226, 8.83 µM (inactive); in the experiment on HT-29, 4.67 µM (inactive). For the same molecule, the GI50 is 61.4 µM (inactive) in the experiment with Hs-578T; 35 µM (inactive) with OVCAR-5; 14.4 µM (inactive) in the experiment on SK-MEL-2; 27.2 µM (inactive) in the experiment on SNB-19; 21.5 µM (inactive) in the experiment with NCI-H226; 10.1 µM (inactive) with NCI/ADR-RES. The GI50 was 20.8 µM (inactive) in the experiment with ACHN; 25 µM (inactive) in the experiment on EKVX; 4.99 µM in the experiment on HCT-15; 3.22 µM (inactive) with MCF7; 15.9 µM (inactive) in the experiment on UACC-257; 8 µM (inactive) in the experiment with 786-0. Besides, in the experiment on SK-MEL-5, the GI50 was 11.5 µM (inactive).

`COCCN(CCNC(=O)c1cccc2c(N)c3cccc(C)c3nc12)CCOC`: the GI50 in the experiment with HCC 2998 was 0.294 µM (active); in the experiment with A498 it was 2.78 µM (inactive); with IGROV-1, 0.571 µM (active); in the experiment with MDA-MB-231, 0.24 µM (active); in the experiment with RPMI-8226 it was 1.12 µM (active); with HT-29 it was 0.558 µM (active). Also, the GI50 in the experiment with Hs-578T was 1.87 µM (inactive); with OVCAR-5 it was 2.2 µM (inactive); in the experiment with SK-MEL-2 it was 5.36 µM (inactive); in the experiment with SNB-19, 2.48 µM (inactive); in the experiment on NCI-H226, 1.03 µM (active); with NCI/ADR-RES, 4.4 µM (inactive). Moreover, the GI50 with ACHN was 0.681 µM (active); with EKVX, 1.31 µM (inactive); in the experiment with HCT-15 it was 1.82 µM; with MCF7, 0.136 µM (active); in the experiment on UACC-257 it was 4.63 µM (inactive); in the experiment with 786-0, 0.562 µM (active). The GI50 in the experiment on SK-MEL-5 was 0.951 µM (active).

As for `CCC1(CC)N=C(C(F)(F)F)c2cc(C(=O)C(F)(F)F)c3ccccc3c2N1`, the GI50 in the experiment with HCC 2998 is 4.39 µM (inactive); with A498 it was 15.6 µM (inactive); in the experiment with IGROV-1, 3.76 µM (inactive); in the experiment with MDA-MB-231, 3.44 µM (inactive); in the experiment with RPMI-8226, 2.58 µM (inactive); in the experiment with HT-29, 3.7 µM (inactive). Besides, the GI50 in the experiment on Hs-578T was 5.83 µM (inactive); in the experiment on OVCAR-5, 13.4 µM (inactive); with SK-MEL-2, 2.81 µM (inactive); in the experiment with SNB-19, 5.15 µM (inactive); with NCI-H226, 6.5 µM (inactive); in the experiment on NCI/ADR-RES it was 4.14 µM (inactive). Besides, the GI50 in the experiment with ACHN is 4.3 µM (inactive); in the experiment with EKVX it was 10.2 µM (inactive); in the experiment on HCT-15 it was 4.22 µM; in the experiment on MCF7, 3.77 µM (inactive); in the experiment on UACC-257, 7.8 µM (inactive); in the experiment with 786-0 it was 3.87 µM (inactive). The GI50 in the experiment with SK-MEL-5 was 1.77 µM (inactive).

Regarding `COc1cccc2c3ccccc3c3nc[nH]c3c12`, the GI50 in the experiment on HCC 2998 was 23.9 µM (inactive); in the experiment on A498, 23.1 µM (inactive); in the experiment with IGROV-1 it was 41.4 µM (inactive); in the experiment with MDA-MB-231, 25.4 µM (inactive); in the experiment on RPMI-8226 it was 21.9 µM (inactive); in the experiment on HT-29, 31.6 µM (inactive). Further, the GI50 in the experiment on Hs-578T was < 0.01 µM (active); in the experiment with OVCAR-5, 55.3 µM (inactive); in the experiment on SK-MEL-2 it was 58.3 µM (inactive); in the experiment with SNB-19, > 46.8 µM (inactive); in the experiment with NCI-H226, 37.8 µM (inactive); with NCI/ADR-RES it was 46.3 µM (inactive). Besides, the GI50 in the experiment with ACHN was 44.2 µM (inactive); in the experiment with EKVX it was > 48.3 µM (inactive); in the experiment on HCT-15, 27.7 µM; in the experiment on MCF7 it was 47.4 µM (inactive); in the experiment with UACC-257 it was 23.6 µM (inactive); with 786-0, 18.1 µM (inactive). In addition, in the experiment on SK-MEL-5, the GI50 was 16.7 µM (inactive).

Regarding `CC1Cc2cc(O)ccc2C2[C@@H]1C1CC[C@H](O)[C@@]1(C)C[C@@H]2O[N+](=O)[O-]` (some centres not stated), the GI50 was 5.48 µM (inactive) in the experiment on HCC 2998; 31.8 µM (inactive) in the experiment with A498; 25.2 µM (inactive) in the experiment with IGROV-1; 12.1 µM (inactive) in the experiment on MDA-MB-231; 5.64 µM (inactive) in the experiment with RPMI-8226; 16 µM (inactive) with HT-29. The GI50 in the experiment with Hs-578T is 3.21 µM (inactive); with OVCAR-5 it was 33.4 µM (inactive); with SK-MEL-2, 5.46 µM (inactive); in the experiment on SNB-19 it was 9.68 µM (inactive); in the experiment on NCI-H226, 32.1 µM (inactive); in the experiment on NCI/ADR-RES it was 3.82 µM (inactive). The GI50 is 14.7 µM (inactive) in the experiment on ACHN; 21.4 µM (inactive) in the experiment on EKVX; 5.18 µM with HCT-15; 4.86 µM (inactive) in the experiment with MCF7; 13 µM (inactive) in the experiment with UACC-257; 8.26 µM (inactive) in the experiment with 786-0. In the experiment on SK-MEL-5, the GI50 is 4.93 µM (inactive).

Consider `COC(=O)c1ccc2[nH]c3c(c2c1)CC(=O)Nc1ccccc1-3`, for which the GI50 is > 100 µM (inactive) in the experiment on HCC 2998; > 100 µM (inactive) with A498; 44.2 µM (inactive) with IGROV-1; 12.4 µM (inactive) in the experiment on MDA-MB-231; > 100 µM (inactive) in the experiment on RPMI-8226; > 100 µM (inactive) with HT-29. For the same molecule, the GI50 in the experiment with Hs-578T was > 100 µM (inactive); in the experiment with OVCAR-5, 60.3 µM (inactive); with SK-MEL-2, > 100 µM (inactive); with SNB-19 it was > 100 µM (inactive); in the experiment on NCI-H226, 7.31 µM (inactive); in the experiment with NCI/ADR-RES, > 100 µM (inactive). Also, the GI50 was > 100 µM (inactive) in the experiment with ACHN; 26.2 µM (inactive) in the experiment with EKVX; above 100 µM with HCT-15; > 100 µM (inactive) in the experiment with MCF7; > 100 µM (inactive) in the experiment with UACC-257; > 100 µM (inactive) in the experiment on 786-0. For the same molecule, the GI50 with SK-MEL-5 was > 100 µM (inactive).
